PubChem BioAssay AID256 (DTP/NCI, 2004)
“And” between values parts separate entries of the source, which are not always exact repeats. Equal entries are not always repeated. Toxic doses and inconclusive results are not listed.

Tested on: CD2F1 mice, L1210 leukemia ip, survival T/C
Assay: NCI In Vivo Anticancer Drug Screen. Data for tumor model L1210 Leukemia (intraperitoneal) in CD2F1 (CDF1) mice
Conditions: higher = longer survival
Procedure, shortened: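 Antitumor effect is scored in animals hosting a serially transplanted tumor. Values compare compound-dosed animals against vehicle-only controls as a simple quotient.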

[1] = endpoint: mean survival time, dose: 100.0 mg/kg/injection, schedule: Q01DX001 (ip), vehicle: saline
[2] = endpoint: mean survival time, dose: 200.0 mg/kg/injection, schedule: Q01DX001 (ip), vehicle: saline
[3] = endpoint: mean survival time, dose: 400.0 mg/kg/injection, schedule: Q01DX001 (ip), vehicle: saline
[4] = endpoint: mean survival time, dose: 100.0 mg/kg/injection, schedule: Q04DX002 (ip), vehicle: saline with Tween-80
[5] = endpoint: mean survival time, dose: 200.0 mg/kg/injection, schedule: Q04DX002 (ip), vehicle: saline with Tween-80
[6] = endpoint: mean survival time, dose: 400.0 mg/kg/injection, schedule: Q04DX002 (ip), vehicle: saline with Tween-80
[7] = endpoint: mean survival time, dose: 100.0 mg/kg/injection, schedule: Q01DX009 (ip), vehicle: saline
[8] = endpoint: mean survival time, dose: 400.0 mg/kg/injection, schedule: Q01DX009 (ip), vehicle: saline
[9] = endpoint: mean survival time, dose: 100.0 mg/kg/injection, schedule: Q01DX001 (ip), vehicle: saline with Tween-80
[10] = endpoint: mean survival time, dose: 200.0 mg/kg/injection, schedule: Q01DX001 (ip), vehicle: saline with Tween-80
[11] = endpoint: mean survival time, dose: 25.0 mg/kg/injection, schedule: Q04DX002 (ip), vehicle: saline with Tween-80
[12] = endpoint: mean survival time, dose: 50.0 mg/kg/injection, schedule: Q04DX002 (ip), vehicle: saline with Tween-80
[13] = endpoint: mean survival time, dose: 100.0 mg/kg/injection, schedule: Q04DX003 (ip), vehicle: saline with Tween-80
[14] = endpoint: mean survival time, dose: 200.0 mg/kg/injection, schedule: Q04DX003 (ip), vehicle: saline with Tween-80
[15] = endpoint: mean survival time, dose: 400.0 mg/kg/injection, schedule: Q04DX003 (ip), vehicle: saline with Tween-80
[16] = endpoint: mean survival time, dose: 100.0 mg/kg/injection, schedule: Q01DX009 (ip), vehicle: saline with Tween-80
[17] = endpoint: mean survival time, dose: 200.0 mg/kg/injection, schedule: Q01DX009 (ip), vehicle: saline with Tween-80
[18] = endpoint: mean survival time, dose: 400.0 mg/kg/injection, schedule: Q01DX009 (ip), vehicle: saline with Tween-80

CC(=O)OCC1OC(n2ccc(O)cc2=O)C(OC(C)=O)C1OC(C)=O (stereo unspecified)
T/C (endpoint: median survival time, dose: 44.0 mg/kg/injection, schedule: Q01DX009 (ip), vehicle: saline + alcohol): 154 % of control | T/C (endpoint: median survival time, dose: 67.0 mg/kg/injection, schedule: Q01DX009 (ip), vehicle: saline + alcohol): 164 % of control | T/C (endpoint: median survival time, dose: 100.0 mg/kg/injection, schedule: Q01DX009 (ip), vehicle: saline + alcohol): 174 % of control | T/C (endpoint: median survival time, dose: 150.0 mg/kg/injection, schedule: Q01DX009 (ip), vehicle: saline + alcohol): 165 % of control

N=C(N)c1ccccc1
T/C [1]: 94 % of control | T/C [2]: 100 % of control | T/C [3]: 94 % of control

CC(C)c1cc(C(=O)O)c(O)c(C(C)C)c1.CC(C)c1cc(C(=O)O)c(O)c(C(C)C)c1.[Cu]
T/C (endpoint: median survival time, dose: 6.25 mg/kg/injection, schedule: Q01DX009 (ip), vehicle: saline with Tween-80): 100 % of control | T/C (endpoint: median survival time, dose: 12.5 mg/kg/injection, schedule: Q01DX009 (ip), vehicle: saline with Tween-80): 96 % of control | T/C (endpoint: median survival time, dose: 25.0 mg/kg/injection, schedule: Q01DX009 (ip), vehicle: saline with Tween-80): 96 % of control

COc1cc(C2c3cc4c(cc3C(OC3CCCCO3)C3COC(=O)C23)OCO4)cc(OC)c1OC (stereo unspecified)
T/C (endpoint: median survival time, dose: 1.56 mg/kg/injection, schedule: Q01DX009 (ip), vehicle: Klucel (hydroxypropylcellulose) (HPC)): 109 % of control | T/C (endpoint: median survival time, dose: 3.12 mg/kg/injection, schedule: Q01DX009 (ip), vehicle: Klucel (hydroxypropylcellulose) (HPC)): 120 % of control | T/C (endpoint: median survival time, dose: 3.13 mg/kg/injection, schedule: Q01DX009 (ip), vehicle: Klucel (hydroxypropylcellulose) (HPC)): 114 % of control | T/C (endpoint: median survival time, dose: 6.25 mg/kg/injection, schedule: Q01DX009 (ip), vehicle: Klucel (hydroxypropylcellulose) (HPC)): 120 % of control | T/C (endpoint: median survival time, dose: 12.5 mg/kg/injection, schedule: Q01DX009 (ip), vehicle: Klucel (hydroxypropylcellulose) (HPC)): 101 % of control

Cc1cc(C)c(CC=O)c(C)c1
T/C (endpoint: median survival time, dose: 25.0 mg/kg/injection, schedule: Q04DX002 (ip), vehicle: saline with Tween-80): 100 % of control | T/C (endpoint: median survival time, dose: 50.0 mg/kg/injection, schedule: Q04DX002 (ip), vehicle: saline with Tween-80): 100 % of control | T/C (endpoint: median survival time, dose: 100.0 mg/kg/injection, schedule: Q04DX002 (ip), vehicle: saline with Tween-80): 100 % of control | T/C (endpoint: median survival time, dose: 200.0 mg/kg/injection, schedule: Q04DX002 (ip), vehicle: saline with Tween-80): 100 % of control

Cc1ccc(S(=O)(=O)N=S(C)(C)=O)cc1
T/C [4]: 98 % of control | T/C [5]: 94 % of control | T/C [6]: 94 % of control

N/C=N/O
T/C (endpoint: mean survival time, dose: 66.0 mg/kg/injection, schedule: Q01DX009 (ip), vehicle: saline): 112 % of control | T/C [7]: 120 % of control and 110 % of control | T/C [8]: 114 % of control

Nc1nc(-c2ccccc2)nc2[nH]ncc12
T/C [9]: 95 % of control | T/C [10]: 95 % of control | T/C (endpoint: mean survival time, dose: 400.0 mg/kg/injection, schedule: Q01DX001 (ip), vehicle: saline with Tween-80): 89 % of control

NNC(=O)CCCCCC/C=C/CCCCCCCO
T/C (endpoint: mean survival time, dose: 50.0 mg/kg/injection, schedule: Q01DX001 (ip), vehicle: saline with Tween-80): 98 % of control | T/C [9]: 108 % of control | T/C [10]: 101 % of control

CN(C)C=Nc1ccc(Cl)c(Cl)c1
T/C (endpoint: mean survival time, dose: 25.0 mg/kg/injection, schedule: Q04DX003 (ip), vehicle: saline): 98 % of control | T/C (endpoint: mean survival time, dose: 50.0 mg/kg/injection, schedule: Q04DX003 (ip), vehicle: saline): 92 % of control

Nc1ccccc1OCCCn1cc(-c2ccc(Cl)c(Cl)c2)c(N)nc1=O
T/C (endpoint: mean survival time, dose: 50.0 mg/kg/injection, schedule: Q01DX009 (ip), vehicle: Klucel (hydroxypropylcellulose) (HPC)): 94 % of control | T/C (endpoint: mean survival time, dose: 100.0 mg/kg/injection, schedule: Q01DX009 (ip), vehicle: Klucel (hydroxypropylcellulose) (HPC)): 101 % of control | T/C (endpoint: mean survival time, dose: 200.0 mg/kg/injection, schedule: Q01DX009 (ip), vehicle: Klucel (hydroxypropylcellulose) (HPC)): 90 % of control

[Cl][Hg][c]1ccc2ccccc2c1
T/C (endpoint: mean survival time, dose: 12.5 mg/kg/injection, schedule: Q04DX002 (ip), vehicle: saline with Tween-80): 90 % of control | T/C [11]: 102 % of control | T/C [12]: 111 % of control

CC1=C(C2=C(C)C([N+](=O)[O-])(C(C)(C)C)C=C(C(C)(C)C)C2=O)C(=O)C(C(C)(C)C)=CC1([N+](=O)[O-])C(C)(C)C (stereo unspecified)
T/C [4]: 90 % of control | T/C [5]: 94 % of control | T/C [6]: 90 % of control

Nc1cc(C(F)(F)F)ccc1[N+](=O)[O-]
T/C [13]: 100 % of control | T/C [14]: 100 % of control | T/C [15]: 104 % of control

Cc1ccc(C(=O)CCCCl)c(C)c1
T/C [16]: 111 % of control | T/C [17]: 104 % of control | T/C [18]: 104 % of control

CC1=CSCC(=O)N1
T/C [13]: 101 % of control | T/C [14]: 98 % of control | T/C [15]: 108 % of control

CCc1cccc(CC)c1NC(N)=S
T/C [11]: 108 % of control | T/C [12]: 97 % of control | T/C [4]: 101 % of control

COc1cc(NC(N)=O)ccc1Nc1c2ccc(N)cc2nc2cc(N)ccc12
T/C (endpoint: mean survival time, dose: 0.5 mg/kg/injection, schedule: Q01DX009 (ip), vehicle: saline): 100 % of control | T/C (endpoint: mean survival time, dose: 1.0 mg/kg/injection, schedule: Q01DX009 (ip), vehicle: saline): 98 % of control | T/C (endpoint: mean survival time, dose: 2.0 mg/kg/injection, schedule: Q01DX009 (ip), vehicle: saline): 102 % of control | T/C (endpoint: mean survival time, dose: 4.0 mg/kg/injection, schedule: Q01DX009 (ip), vehicle: saline): 102 % of control | T/C (endpoint: mean survival time, dose: 8.0 mg/kg/injection, schedule: Q01DX009 (ip), vehicle: saline): 103 % of control | T/C (endpoint: mean survival time, dose: 16.0 mg/kg/injection, schedule: Q01DX009 (ip), vehicle: saline): 111 % of control

Cc1cc(N(CC(C)Cl)CC(C)Cl)ccc1N=Nc1ccccc1C(=O)O (stereo unspecified)
T/C (endpoint: mean survival time, dose: 1.56 mg/kg/injection, schedule: Q01DX009 (ip), vehicle: Klucel (hydroxypropylcellulose) (HPC)): 104 % of control | T/C (endpoint: mean survival time, dose: 3.12 mg/kg/injection, schedule: Q01DX009 (ip), vehicle: Klucel (hydroxypropylcellulose) (HPC)): 104 % of control | T/C (endpoint: mean survival time, dose: 6.25 mg/kg/injection, schedule: Q01DX009 (ip), vehicle: Klucel (hydroxypropylcellulose) (HPC)): 117 % of control and 109 % of control | T/C (endpoint: mean survival time, dose: 12.5 mg/kg/injection, schedule: Q01DX009 (ip), vehicle: Klucel (hydroxypropylcellulose) (HPC)): 111 % of control

[Cl][Pt+2]([Cl])([Cl])[Cl].[NH-]Cc1ccccc1C[NH-]
T/C (endpoint: mean survival time, dose: 5.0 mg/kg/injection, schedule: Q04DX003 (ip), vehicle: saline with Tween-80): 110 % of control | T/C (endpoint: mean survival time, dose: 10.0 mg/kg/injection, schedule: Q04DX003 (ip), vehicle: saline with Tween-80): 118 % of control | T/C (endpoint: mean survival time, dose: 20.0 mg/kg/injection, schedule: Q04DX003 (ip), vehicle: saline with Tween-80): 120 % of control | T/C (endpoint: mean survival time, dose: 40.0 mg/kg/injection, schedule: Q04DX003 (ip), vehicle: saline with Tween-80): 86 % of control

Oc1c(C(Nc2ccccc2)c2ccccc2)ccc2cccnc12 (stereo unspecified)
T/C [1]: 97 % of control | T/C [2]: 97 % of control | T/C [3]: 100 % of control

CC(=O)OC1C(O)C(O)C(OC(C)=O)C(OC(C)=O)C1OC(C)=O (stereo unspecified)
T/C [7]: 102 % of control | T/C (endpoint: mean survival time, dose: 200.0 mg/kg/injection, schedule: Q01DX009 (ip), vehicle: saline): 102 % of control | T/C [8]: 98 % of control

O=C(O)CC1OCC=C2C[N+]3([O-])CCC45c6ccccc6NC4C1C2CC53 (stereo unspecified)
T/C (endpoint: mean survival time, dose: 75.0 mg/kg/injection, schedule: Q01DX001 (ip), vehicle: other): 100 % of control | T/C (endpoint: mean survival time, dose: 150.0 mg/kg/injection, schedule: Q01DX001 (ip), vehicle: other): 98 % of control

CCOC(=O)/C(=C\c1ccccc1Cl)C(C)=O
T/C (endpoint: mean survival time, dose: 25.0 mg/kg/injection, schedule: Q04DX003 (ip), vehicle: saline with Tween-80): 103 % of control | T/C (endpoint: mean survival time, dose: 50.0 mg/kg/injection, schedule: Q04DX003 (ip), vehicle: saline with Tween-80): 96 % of control | T/C [16]: 103 % of control | T/C [13]: 96 % of control | T/C [17]: 108 % of control | T/C [14]: 107 % of control | T/C [18]: 87 % of control

C[N+](C)(C)C.[Cl][Fe]([Cl])([Cl])[Cl]
T/C (endpoint: mean survival time, dose: 3.13 mg/kg/injection, schedule: Q01DX009 (ip), vehicle: saline): 94 % of control | T/C (endpoint: mean survival time, dose: 6.25 mg/kg/injection, schedule: Q01DX009 (ip), vehicle: saline): 97 % of control | T/C (endpoint: mean survival time, dose: 12.5 mg/kg/injection, schedule: Q01DX009 (ip), vehicle: saline): 91 % of control
